In US11028061B2, “Modulators of myocyte lipid accumulation and insulin resistance and methods of use thereof” (Sanford Burnham Prebys Medical Discovery Institute, priority 2015, dated 2021):

Experiments:
primary human myotubes = assay: Fatty acid uptake (3H-oleate); assay type: cell-based; settings: 10 μM, 24 hours
Method: FIGS. 1A-1C show SBI-477 as a small molecule inhibitor of neutral lipid accumulation in human skeletal myotubes. […] Data is shown as percent of DMSO vehicle control. Representative of >5 experiments. FIGS. 1B and 1C show dose-dependent inhibition of myocyte TAG accumulation by SBI-477. FIG. 1B—primary human myotubes were incubated with the indicated concentrations of SBI-477, 1 μM triascin C, 1 μM A922500 (DGAT inhibitor) or vehicle control with 100 μM oleate for 24 hours. Fatty acid free bovine serum albumin (BSA) was included as non-lipid loading control. Bars represent mean triglyceride level normalized to total protein±SD. *p<0.001 vs. oleate/vehicle control by one-way ANOVA with Bonferroni post hoc test. FIG. 1C—primary human myotubes were incubated with 10 μM SBI-477 or vehicle control for 24 hours. Fatty acid (FA) uptake was measured as cellular uptake of 3H-oleate. Bars represent fatty acid uptake normalized to the vehicle control. FIGS. 1D-1F show the effect of SBI-477 on FAO rates in human skeletal myotubes. […] FAO rates were determined by 3H-palmitate oxidation (n=5). […] Total cellular triglyceride levels were determined following incubation with SBI-477 (10 μM) for 24 hours with etomoxir (50 μM) in the absence (FIG. 1E) or presence of 1 mM carnitine (FIG. 1F) (n=4). *p<0.05 vs. vehicle control.

human skeletal myotubes = assay: Quantitative lipidomic analyses and TAG biosynthesis pathway modeling; assay type: cell-based; settings: oleate-loaded myotubes
Method: Quantitative lipidomic analyses was performed on human skeletal myotubes exposed to bovine albumin serum (BSA) or 100 μM oleate in the presence of DMSO vehicle (white bars) or 10 μM SBI-477 (black bars) for 24 hours.
Primary human myotubes were treated with BSA or 100 μM oleate with 10 μM SBI-477 or a vehicle control for 24 hours. The cells were added to […] in an Eppendorf tube and homogenized for 1 minute using a disposable soft tissue homogenizer. A 25 μL aliquot was used to determine the protein content (BCA protein assay kit, Thermo Scientific, Rockford, Ill.). The remaining homogenate was accurately transferred into a disposable glass culture test tube, and a mixture of lipid internal standards was added prior to lipid extraction for quantification of all reported lipid species. Lipid extraction was performed by using a modified Bligh and Dyer procedure as described previously (Wang and Han, 2014). Each lipid extract was resuspended into a volume of 500 μL of chloroform/methanol (1:1, v/v) per mg of protein and flushed with nitrogen, capped, and stored at −20° C. for lipid analysis. For ESI direct infusion analysis, lipid extract was further diluted to a final concentration of ˜500 fmol/μL, and the mass spectrometric analysis was performed on a QqQ mass spectrometer (Thermo TSQ VANTAGE, San Jose, Calif.) equipped with an automated nanospray device (TriVersa NanoMate, Advion Bioscience Ltd., Ithaca, N.Y.).
Intracellular TAG can be formed through reacylation of DAG species generated from several pathways including a de novo glycerolphosphate biosynthetic pathway that involves dephosphorylation of phosphatidic acid (DAGPA), reacylation of monoacylglycerol (DAGMAG), and to a lesser extent, hydrolysis of phosphatidyl inositol (DAGPI). […] This approach uses the individual TAG ion profile, as determined by mass spectrometry, to predict the relative contribution of each pathway to the overall cellular TAG pool. […]

Akt = assay: Western blot of Akt phosphorylation; assay type: cell-based, human; settings: 24 hours
Method: FIGS. 3A, B, C, E and F show SBI-477 stimulation of glucose uptake and activates insulin signaling in the absence of insulin. Human skeletal myotubes were incubated with SBI-477 at the indicated concentration for 24 hours and then treated with or without insulin (100 nM) for 30 minutes. Glucose ([3H]-2-deoxyglucose, 2-DG) uptake (FIG. 3A) and glycogen synthesis rates (FIGS. 3B and 3C) were measured (n=5) as described in Methods. *p<0.05 vs. Vehicle, no insulin, †p<0.05 vs. Vehicle/insulin by two-way ANOVA with Tukey's post hoc test. (FIG. 3E) Western blot analysis of human myotubes treated with SBI-477 for 24 hours was performed to determine the effect on steps of the insulin signaling pathway using specific Akt and IRS-1 phosphorylation sites as endpoints. Insulin treatment (100 nM) for 30 minutes was used as positive control. (FIG. 3F) Quantitation of the western blot data in […] is shown (n=5). *p<0.05 or **p<0.01 vs. Vehicle by one-way ANOVA with Bonferroni post hoc test. The data represent mean±SD.
Cells were lysed in the RIPA buffer containing 1% NP-40, 5 mM Na4P2O7, 1 mM EDTA, 20 mM NaF, 2 mM Na3VO4, 1× cOmplete™ protease inhibitor (Roche) and 1 mM phenylmethylsulfonyl fluoride. […] Protein quantification was performed using FluorChemQ (Alpha Innotech) and normalized to […]-actin or total protein where indicated.

DGAT1/2 = assay: Direct inhibition of DGAT1/2 activity; assay type: biochemical; settings: data not shown
MondoA = molecular target: T1, MondoA (Homo sapiens, UniProt Q9HAP2); assay: Intracellular localization of MondoA (immunolocalization); assay type: cell-based; settings: human skeletal myoblasts; data not shown
T1 construct: endogenous in cells; host or cells: human skeletal myoblasts
T1 sequence (Q9HAP2 whole entry): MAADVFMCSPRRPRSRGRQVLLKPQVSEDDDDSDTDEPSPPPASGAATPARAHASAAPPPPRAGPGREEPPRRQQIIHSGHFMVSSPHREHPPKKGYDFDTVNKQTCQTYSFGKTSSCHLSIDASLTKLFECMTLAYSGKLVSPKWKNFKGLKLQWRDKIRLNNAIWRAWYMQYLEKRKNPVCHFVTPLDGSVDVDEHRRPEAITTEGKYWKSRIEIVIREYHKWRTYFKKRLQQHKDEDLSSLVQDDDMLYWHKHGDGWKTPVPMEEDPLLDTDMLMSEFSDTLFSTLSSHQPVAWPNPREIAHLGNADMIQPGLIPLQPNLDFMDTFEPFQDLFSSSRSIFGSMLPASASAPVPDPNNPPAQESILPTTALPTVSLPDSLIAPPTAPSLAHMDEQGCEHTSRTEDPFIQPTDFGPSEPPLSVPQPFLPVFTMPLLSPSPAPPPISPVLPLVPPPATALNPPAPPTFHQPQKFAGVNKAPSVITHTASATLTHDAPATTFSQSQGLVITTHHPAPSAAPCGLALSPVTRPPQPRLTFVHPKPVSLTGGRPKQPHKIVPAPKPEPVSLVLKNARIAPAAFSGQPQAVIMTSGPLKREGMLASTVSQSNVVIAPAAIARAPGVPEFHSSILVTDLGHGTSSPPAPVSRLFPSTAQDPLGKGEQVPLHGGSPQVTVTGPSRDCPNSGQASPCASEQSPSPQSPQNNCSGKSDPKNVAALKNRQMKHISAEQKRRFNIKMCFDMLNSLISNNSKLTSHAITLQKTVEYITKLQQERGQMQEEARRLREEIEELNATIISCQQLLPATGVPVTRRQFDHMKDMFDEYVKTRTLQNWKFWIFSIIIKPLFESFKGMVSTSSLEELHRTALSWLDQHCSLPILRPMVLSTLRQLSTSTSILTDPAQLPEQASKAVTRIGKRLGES
Method: The activity of ChREBP and MondoA is governed, in part, by nuclear-cytoplasmic shuttling mechanisms that are incompletely understood but likely involve glucose metabolites and phosphorylation (Stoltzman, et al., Proc Natl Acad Sci USA. 2008; 105(19):6912-6917; Filhoulaud, et al., Trends Endocrinol Metab. 2013; 24(5):257-268). Accordingly, the effect of SBI-477 on intracellular localization of MondoA was assessed. […] The results of immunoblotting studies conducted with fractionated cellular extracts further supported this conclusion (FIG. 5D).

SMILES: COc1ccc(-c2csc(NC(=O)c3ccc(OCC(=O)N4CCOCC4)c(OC)c3)n2)cc1 [Cpd. 7, 3-methoxy-N-(4-(4-methoxyphenyl)thiazol-2-yl)-4-(2-morpholino-2-oxoethoxy)benzamide]
- Cellular fatty acid uptake (primary human myotubes): not due to blocking cellular fatty acid uptake
- Levels of ceramide and total sphingomyelin (human skeletal myotubes): not significantly altered
- DAG species levels (human skeletal myotubes; 24 hour exposure): reduced
- TAG species levels (human skeletal myotubes; 24 hour exposure): reducing all TAG species measured
- Phosphorylation of Akt (Akt): also increased
- Direct inhibition of DGAT1/2 activity (DGAT1/2): not found that SBI-477 directly inhibits
- Nuclear localization of MondoA (MondoA): near complete nuclear exclusion of MondoA
